Common to all, as to format: in vivo, human
In assay [1] the test system is patient with tinnitus and vertigo attacks. Description: Tinnitus pattern in patient case example 3. Conditions: Case 3; 2250 mg troxerutin orally daily; 4th week of treatment. As for the experimental part:
(§1) patient with tinnitus and vertigo attacks for 4 months.
(§2) A 4-week therapy with 2250 mg of troxerutin orally daily followed. Under this, hearing improved in the 1st week by 10 dB in the low frequency range and by 5 dB in the high frequency range. There was no change in the frequency of vertigo attacks (1 to 4 times within 2 days).

Assay [2] concerns patient with hearing impairment. The assay can be described thus: Pure-tone threshold audiometry in patient case examples under oral therapy. Conditions: 2250 mg troxerutin orally daily.
Text: as §1
Moderate hearing loss existed which was confirmed by pure-tone threshold audiometry to be a loss of hearing especially in the low and high frequency ranges. The underlying disease present was insulin-dependent diabetes mellitus. The findings existed for 4 months with the tendency for progressive worsening. […]

Assay [3] has as its system patient with tinnitus and vertigo attacks. Description: Frequency of vertigo attacks in patient case example 3. The settings on record: Case 3; 2250 mg troxerutin orally daily, 4-week therapy. As for the experimental part: as §1, §2

In the case of “3′,4′,7-tris-O-(β-hydroxyethyl)rutin [troxerutin]”, the tinnitus pattern entry in assay [1] is “intermittent with relatively frequent absences which lasted for hours”. In addition, the “improvement in the audiogram, high-frequency range, right ear” value in assay [2] (Case 1, 4-week therapy) is listed as 10 dB. Also, in assay [2] (Case 2, after 1 week), the “improvement of audiogram, high frequency range” value is reported as “minor improvement” and the “improvement of audiogram, low frequency range” value stood at 10 dB. The “improvement of hearing, low frequency range” value in assay [2] (Case 3, moderate hearing loss, 1st week) is 10 dB. Besides, the “improvement of hearing, high frequency range” value in assay [2] (Case 3, 1st week) is 5 dB. In assay [2] (Case 4, week 3), the “improvement of hearing, high frequency range” value is “marginally” and the “improvement of hearing, low frequency range” value is recorded as 10 dB. In assay [3], the “frequency of vertigo attacks” value was “no change”.
